Test: Inhibitory concentration required against protein phosphatase 1 using pNPP assay

SMILES	IC50
COC(=O)[C@@H](CCC(=O)N(C)C)NC(=O)[C@@H](C)[C@H](/C=C/C(C)=C/[C@H](C)[C@H](Cc1ccccc1)OC)NC(C)=O [(R)-2-((4E,6E)-(2S,3S,8S,9S)-3-Acetylamino-9-methoxy-2,6,8-trimethyl-10-phenyl-deca-4,6-dienoylamino)-4-dimethylcarbamoyl-butyric acid methyl ester]	> 100 µM
CO[C@@H](Cc1ccccc1)[C@@H](C)/C=C(C)/C=C/[C@H](NC(C)=O)[C@H](C)C(=O)N[C@H](CCC(=O)N(C)C)C(=O)O [(R)-2-((4E,6E)-(2S,3S,8S,9S)-3-Acetylamino-9-methoxy-2,6,8-trimethyl-10-phenyl-deca-4,6-dienoylamino)-4-dimethylcarbamoyl-butyric acid]	> 100 µM
CO[C@@H](Cc1ccccc1)[C@@H](C)/C=C(C)/C=C/[C@H](NC(C)=O)[C@H](C)C(=O)N[C@H](CCC(=O)N(C)CC(=O)N[C@H](C)C(=O)O)C(=O)O [(R)-2-((4E,6E)-(2S,3S,8S,9S)-3-Acetylamino-9-methoxy-2,6,8-trimethyl-10-phenyl-deca-4,6-dienoylamino)-4-{[((R)-1-carboxy-ethylcarbamoyl)-methyl]-methyl-carbamoyl}-butyric acid]	400 µM
CO[C@@H](Cc1ccccc1)[C@@H](C)/C=C(C)/C=C/[C@H](NC(C)=O)[C@H](C)C(=O)N[C@H](CCC(=O)N(C)CC(=O)N[C@H](C)C(=O)N[C@@H](CC(C)C)C(=O)O)C(=O)O [(S)-2-[(R)-2-(2-{[(R)-4-((4E,6E)-(2S,3S,8S,9S)-3-Acetylamino-9-methoxy-2,6,8-trimethyl-10-phenyl-deca-4,6-dienoylamino)-4-carboxy-butyryl]-methyl-amino}-acetylamino)-1-oxo-propylamino]-4-methyl-pentanoic acid]	230 µM
C=C(C(=O)N[C@H](C)C(=O)N[C@@H](CC(C)C)C(=O)O)N(C)C(=O)CC[C@@H](NC(=O)[C@@H](C)[C@H](/C=C/C(C)=C/[C@H](C)[C@H](Cc1ccccc1)OC)NC(C)=O)C(=O)O [(S)-2-[(R)-2-(2-{[(R)-4-((4E,6E)-(2S,3S,8S,9S)-3-Acetylamino-9-methoxy-2,6,8-trimethyl-10-phenyl-deca-4,6-dienoylamino)-4-carboxy-butyryl]-methyl-amino}-acryloylamino)-1-oxo-propylamino]-4-methyl-pentanoic acid]	75 µM

Reference: BindingDB's records for doi:10.1016/s0960-894x(03)00589-4 (University of California Irvine, 2003)
